Data published in patent publication US8129345B2, “MUC1-IκB kinase complexes and their activities” (Dana-Farber Cancer Institute, Inc., priority 2006, dated 2012).

Legend:
MCF-10A cells = test: TNFα stimulation of MCF-10A cells, immunoprecipitation and immunoblotting of fractions; format: cell-based, Human; conditions: 20 ng/ml TNFα
Experimental: FIG. 10B is a pair of photographs of immunoblots. Lysates from MCF-10A cells left untreated (0) or stimulated with 20 ng/ml TNFα for the indicated times (0.5, or 2 hours) were immunoprecipitated with anti-IKKβ (left) or anti-IKKγ (right). The immunoprecipitates were immunoblotted with antibodies specific to MUC1-C, and either IKKβ (left panel) or IKKγ (right panel) as loading controls. The molecular weights of proteins (as indicated on the left of the photographs) are expressed as kilodaltons (kDa).
FIG. 10C is a series of photographs of immunoblots. MCF-10A cells were left untreated (0) or stimulated with 20 ng/ml TNFα for the indicated times. Cytosolic and nuclear fractions of the cells were prepared and subjected to immunoblotting with the indicated antibodies. The molecular weights of proteins (as indicated on the left of the photographs) are expressed as kilodaltons (kDa).
(§1) Cell culture. Human HCT116 colon carcinoma cells, HeLa cervical carcinoma cells and MCF-7 breast cancer cells were grown in Dulbecco's modified Eagle's medium with 10% heat-inactivated fetal bovine serum, 100 units/ml penicillin, […] streptomycin and 2 mM L-glutamine. Human ZR-75-1 breast cancer cells were grown in RPMI1640 medium containing 10% heat-inactivated fetal bovine serum, antibiotics and L-glutamine. Human MCF-10A breast epithelial cells were grown in mammary epithelial cell growth media (MEGM; Cambrex Corp.).
Subcellular fractionation. Nuclear and cytosolic fractions were prepared as described in Kharbanda et al. (1996) Cancer Res. 56:3617-3621.
(§2) Immunoprecipitation and immunoblotting. Lysates from subconfluent cells were prepared as described in Ren et al. (2004) Cancer Cell 5:163-175. Soluble proteins were incubated with anti-IKKβ (Cell Signaling Technology) or anti-IKKγ (Santa Cruz Biotechnology) for 2 h at 4° C. […] The immune complexes were detected with horseradish peroxidase-conjugated secondary (anti-IgG) antibodies (Amersham Biosciences) and enhanced chemiluminescence (ECL; Amersham Biosciences). […]

MCF-7 cells = test: TNFα treatment of MCF-7 cells, MUC1-C binding to IKKs; format: cell-based, Human
Experimental: as §1, §2

## TNFα
MCF-10A cells; MCF-10A cytosolic fractions
  phosphorylation and degradation of IκBα: associated with phosphorylation and degradation of IκBα
MCF-10A cells; MCF-10A nuclear fractions
  targeting of NF-κB p65 to the nucleus: targeting of NF-κB p65 to the nucleus
MCF-10A cells; MCF-10A
  binding of MUC1-C to IKKβ and IKKγ: increased binding
MCF-7 cells
  binding of MUC1-C to IKKβ or IKKγ: no apparent effect
